Reference: ChEMBL document CHEMBL1201862, “PubChem BioAssay data set” (2004)
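Growth conditions: 96-well plates. Treatment: test compound, 48 hours, 5 concentrations. Analysis: linear interpolation between bracketing concentrations; unreached endpoints set to highest concentration. The concentration for 50% growth inhibition is given as GI50.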 Activity calls are given as the source filed them. Cut-off read from the data, not from the text of the source: active = GI50 up to about 1.1 µM and inactive = higher.

What was measured:
Test in all cases: NCI-60 cell line screen, 48 h
[1] = test system: NCI-H460
[2] = test system: NCI-H23
[3] = test system: RXF 393
[4] = test system: SK-MEL-5
[5] = test system: OVCAR-5
[6] = test system: EKVX
[7] = test system: CAKI-1
[8] = test system: PC-3
[9] = test system: T47D
[10] = test system: KM12
[11] = test system: ACHN
[12] = test system: HCC 2998
[13] = test system: A549
[14] = test system: NCI-H226
[15] = test system: UACC-62
[16] = test system: 786-0
[17] = test system: COLO 205
[18] = test system: OVCAR-8
[19] = test system: SK-MEL-2
[20] = test system: MDA-MB-231

Measured: GI50

CCOC(=O)NC(=O)c1cn(CCCOC(=O)CCCCCCCCC(=O)OCCCn2cc(C(=O)NC(=O)OCC)c(=O)n(C)c2=O)c(=O)n(C)c1=O
inactive: [1] > 100 µM | [2] > 100 µM | [3] > 82.8 µM | [4] > 100 µM | [5] > 100 µM | [6] > 100 µM | [7] > 69 µM | [8] > 100 µM | [9] > 100 µM | [10] > 100 µM | [11] > 100 µM | [12] > 100 µM | [13] > 100 µM | [14] > 100 µM | [15] > 100 µM | [16] > 76.6 µM | [17] > 100 µM | [18] > 79.4 µM | [19] 97.1 µM

C[C@]12CC[C@H]3[C@@H](CC=C4C[C@@H](O)CC[C@@]43C)[C@@H]1C/C(=C\c1cccnc1)[C@@H]2O
inactive: [1] 31.6 µM | [2] 13.1 µM | [3] 15 µM | [5] 41.4 µM | [6] 3.97 µM | [20] 13.2 µM | [8] 30.7 µM | [10] > 100 µM | [11] 5.82 µM | [13] 7.83 µM | [14] 5.25 µM | [15] 7.96 µM | [16] 19 µM | [17] > 100 µM | [18] 6.89 µM | [19] 30.8 µM

Cc1ccc(C(=O)O)c(/C=C2\Cc3ccc(C)cc3C2=O)c1
inactive: [1] 56.4 µM | [2] 75.3 µM | [3] 42.3 µM | [4] 25.1 µM | [5] 28.4 µM | [6] 98.9 µM | [7] 44.3 µM | [8] 48.8 µM | [9] 92 µM | [10] 61.4 µM | [11] 55.2 µM | [12] 38.9 µM | [13] 91.2 µM | [14] 28.2 µM | [15] 69.2 µM | [16] 62.2 µM | [17] 51.4 µM | [18] 61.5 µM | [19] 32 µM

Cc1nc(O)nc(CC(O)(c2ccccc2)c2ccccc2)c1-c1ccccc1
inactive: [1] > 100 µM | [2] > 100 µM | [3] > 100 µM | [4] > 100 µM | [5] > 100 µM | [6] > 100 µM | [7] > 100 µM | [10] > 100 µM | [11] > 100 µM | [12] > 100 µM | [13] > 100 µM | [14] > 100 µM | [15] > 100 µM | [16] > 100 µM | [17] > 100 µM | [18] > 100 µM | [19] > 100 µM

Cc1ccc(S(=O)(=O)NC(=O)NCCC(=O)O)cc1
inactive: [1] > 100 µM | [2] 19.3 µM | [3] > 100 µM | [4] > 100 µM | [5] > 100 µM | [20] > 100 µM | [8] > 100 µM | [9] > 100 µM | [10] > 100 µM | [11] > 100 µM | [13] > 100 µM | [15] > 100 µM | [16] > 100 µM | [17] > 100 µM | [18] > 100 µM | [19] > 100 µM

Cc1nc(Nc2ccccc2)sc1C(=O)CC(=O)C(=O)NC12CC3CC(CC(C3)C1)C2
inactive: [1] > 100 µM | [2] > 100 µM | [3] 54.6 µM | [4] 74.5 µM | [5] > 100 µM | [6] 7.21 µM | [7] 65.2 µM | [10] > 100 µM | [11] > 100 µM | [12] > 100 µM | [13] > 100 µM | [14] > 100 µM | [15] 41.4 µM | [16] > 100 µM | [17] > 100 µM | [18] > 100 µM | [19] > 100 µM

CC(=O)Nc1oc(C)c(C)c1S(=O)(=O)c1ccc(Cl)cc1
inactive: [1] 35.7 µM | [2] 43.3 µM | [3] 69.7 µM | [4] 27.8 µM | [5] > 100 µM | [6] 39.4 µM | [8] 22.1 µM | [9] 52.7 µM | [10] 39.4 µM | [11] 46.2 µM | [12] 41.3 µM | [13] 52 µM | [14] 34.4 µM | [15] 42 µM | [16] 98.9 µM | [17] 72.8 µM | [18] 45.7 µM | [19] 28.4 µM

N#Cc1ccc(Nc2cnc3cc(N)ccc3n2)cc1
inactive: [1] 58.1 µM | [2] > 100 µM | [3] 26.5 µM | [4] > 100 µM | [5] > 100 µM | [6] 98.2 µM | [7] 66.5 µM | [10] > 100 µM | [11] 69 µM | [12] > 100 µM | [13] > 100 µM | [14] > 100 µM | [15] 83.4 µM | [16] 85.1 µM | [17] > 100 µM | [18] > 100 µM | [19] > 100 µM
